The results in this text go back to patent publication US11470846B2, “Herbicidal pyridino-/pyrimidino-thiazoles” (SYNGENTA PARTICIPATIONS AG, priority 2014, dated 2022).

Common to all, as to assay type: in vivo
For assay [1], the system named is Alopecurus myosuroides (ALOMY). The assay is described as follows: Pre-emergence herbicidal activity. The conditions noted are these: pre-emergence application, 1000 g/Ha, evaluated after 13 days, scale 0-5. A digest of the protocol:
(§1)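 Seeds sown in standard soil, sprayed one day after sowing with active ingredient formulated in acetone/water (50:50) with 0.5% Tween 20. Glasshouse at 24/16 °C day/night, 14 h light, 65% humidity, watered twice daily; damage scored after 13 days on a 0–5 scale (5 = total damage).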

The test system of assay [2] is Avena fatua (AVEFA). Nature of the assay: Pre-emergence herbicidal activity. To be noted: pre-emergence application, 1000 g/Ha, evaluated after 13 days, scale 0-5. A digest of the protocol: as §1
In assay [3] the test system is Echinochloa crus-galli (ECHCG). Nature of the assay: Pre-emergence herbicidal activity. To be noted: pre-emergence application, 1000 g/Ha, evaluated after 13 days, scale 0-5; Table 5. The method in brief: as §1
In assay [4] the test system is Lolium perenne (LOLPE). Nature of the assay: Pre-emergence herbicidal activity. To be noted: pre-emergence application, 1000 g/Ha, evaluated after 13 days, scale 0-5; Table 5. A digest of the protocol: as §1
Assay [5] concerns Oryza sativa (ORYSA). The assay is described as follows: Pre-emergence herbicidal activity. To be noted: pre-emergence application, 1000 g/Ha, evaluated after 13 days, scale 0-5. A digest of the protocol:
as §1

Assay [6] has as its system Triticum aestivium (TRZAW). The assay is described as follows: Pre-emergence herbicidal activity. The conditions noted are these: pre-emergence application, 1000 g/Ha, evaluated after 13 days, scale 0-5. The method in brief: as §1
Assay [7] has as its system Alopecurus myosuroides (ALOMY). Nature of the assay: Post-emergence herbicidal activity. The conditions noted are these: post-emergence application, 1000 g/Ha, evaluated after 13 days, scale 0-5. The method in brief: (§2)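 Visual injury rating (0 = unaffected, 5 = totally damaged) taken 13 days post-treatment. Treatment: spray of acetone/water (50:50), 0.5% Tween 20 formulation applied to plants 8 days after sowing, with glasshouse conditions of 24/16 °C and 65% humidity throughout.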

The subject of assay [8] is Avena fatua (AVEFA). The assay is described as follows: Post-emergence herbicidal activity. To be noted: post-emergence application, 1000 g/Ha, evaluated after 13 days, scale 0-5. A digest of the protocol: as §2
For assay [9], the system named is Echinochloa crus-galli (ECHCG). The assay is described as follows: Post-emergence herbicidal activity. The conditions noted are these: post-emergence application, 1000 g/Ha, evaluated after 13 days, scale 0-5; Table 7. A digest of the protocol: as §2
Assay [10] has as its system Lolium perenne (LOLPE). Nature of the assay: Post-emergence herbicidal activity. The conditions noted are these: post-emergence application, 1000 g/Ha, evaluated after 13 days, scale 0-5; Table 7. A digest of the protocol:
as §2

Assay [11] relates to Oryza sativa (ORYSA). The assay is described as follows: Post-emergence herbicidal activity. To be noted: post-emergence application, 1000 g/Ha, evaluated after 13 days, scale 0-5. A digest of the protocol:
as §2

Assay [12] relates to Triticum aestivium (TRZAW). The assay is described as follows: Post-emergence herbicidal activity. The conditions noted are these: post-emergence application, 1000 g/Ha, evaluated after 13 days, scale 0-5. A digest of the protocol:
as §2

Regarding `Cc1nc(-c2cncc(Cl)c2)sc1N(C)C(=O)OC(C)(C)C` [Compound A4], the entries for the “Control of weed species, ALOMY (damage score)” value (shortened to “Control of weed species, ALOMY”) in assay [1] and in [7] were 1 and 0, respectively. In addition, the “Control of weed species, AVEFA (damage score)” value (from here on “Control of weed species, AVEFA”) in [2] is given as 4; in [8] it was 5. Moreover, the “Control of weed species, ECHCG (damage score)” value (“Control of weed species, ECHCG” for short) in assay [3] and in [9] was 4 each time. In addition, the “Control of weed species, LOLPE (damage score)” value (“Control of weed species, LOLPE” for short) in [4] and in assay [10] was 2 in each case. For the same compound, the “Control of weed species, ORYSA (damage score)” value (“Control of weed species, ORYSA” for short) in assay [5] is listed as 0; in assay [11] it was 1. Also, the “Control of weed species, TRZAW (damage score)” value (“Control of weed species, TRZAW” for short) came to 0 in assay [6] and 1 in [12].

For the compound `CN(C(=O)OC(C)(C)C)c1sc(-c2cccnc2)nc1F` [Compound A32, tert-butyl N-[4-fluoro-2-(3-pyridyl)thiazol-5-yl]-N-methyl-carbamate], the “Control of weed species, ALOMY” value in assay [1] came to 0; in [7], 1. Also, the “Control of weed species, AVEFA” value worked out at 1 in assay [2] and 3 in assay [8]. Moreover, the “Control of weed species, ECHCG” value in assay [3] turned out to be 2; in [9] it was 3. The “Control of weed species, LOLPE” value in [4] was found to be 1; in [10] it was 2. For the same compound, the “Control of weed species, ORYSA” value is listed as 2 in [5] and 1 in assay [11]. The “Control of weed species, TRZAW” value in assay [6] and in assay [12] was 0 throughout.

For the compound `CCN(C(=O)OC(C)(C)C)c1sc(-c2cccnc2)nc1C` [Compound A17], the figures for the “Control of weed species, ALOMY” value in [1] and in [7] were 0 and 1, respectively. Moreover, the “Control of weed species, AVEFA” value in [2] turned out to be 0; in [8], 4. For the same compound, the “Control of weed species, ECHCG” value in assay [3] worked out at 0; in [9], 1. The “Control of weed species, LOLPE” value in assay [4] came to 0; in assay [10] it was 2. For the same compound, the “Control of weed species, ORYSA” value in assay [5] amounted to 0; in assay [11], 2. Moreover, the figures for the “Control of weed species, TRZAW” value in assay [6] and in assay [12] were 0 and 1, respectively.

Turning to `Cc1nc(-c2cncc(C(F)(F)F)c2)sc1N(C)C(=O)OC(C)(C)C` [Compound A10], the “Control of weed species, ALOMY” value in [1] and in assay [7] was 0 in each case. In addition, the “Control of weed species, AVEFA” value in [2] amounted to 1; in assay [8], 2. For the same compound, the “Control of weed species, ECHCG” value stood at 1 in [3] and 4 in assay [9]. Also, the “Control of weed species, LOLPE” value is 1 in [4] and 0 in assay [10]. Further, the “Control of weed species, ORYSA” value in assay [5] and in [11] was 1 in each case. In addition, the “Control of weed species, TRZAW” value in assay [6] and in assay [12] was 1 each time.

Regarding `Cc1nc(-c2cncc(C(N)=O)c2)sc1N(C)C(=O)OC(C)(C)C` [Compound A8], the “Control of weed species, ALOMY” value was 0 in [1] and 1 in assay [7]. Also, the “Control of weed species, AVEFA” value is 0 in [2] and 2 in assay [8]. Also, the “Control of weed species, ECHCG” value was 0 in [3] and 3 in assay [9]. The “Control of weed species, LOLPE” value in assay [4] and in assay [10] was 0 each time. In addition, the “Control of weed species, ORYSA” value is on record as 0 in assay [5] and 1 in assay [11]. In addition, the results for the “Control of weed species, TRZAW” value in assay [6] and in assay [12] were 0 and 2, respectively.

On to `CN(C(=O)OC(C)(C)C)c1sc(-c2cccnc2)nc1C(F)(F)F` [Compound A25], for which the “Control of weed species, ALOMY” value in assay [1] and in [7] was 1 throughout. For the same compound, the “Control of weed species, AVEFA” value in [2] and in [8] was 4 each time. In addition, the “Control of weed species, ECHCG” value in assay [3] was determined as 4; in [9] it was 5. The figures for the “Control of weed species, LOLPE” value in assay [4] and in assay [10] were 3 and 4, respectively. Further, the “Control of weed species, ORYSA” value in assay [5] and in [11] was 1 throughout. In addition, the entries for the “Control of weed species, TRZAW” value in assay [6] and in assay [12] were 0 and 2, respectively.

With `Cc1nc(-c2cncc(N(C)C)c2)sc1N(C)C(=O)OC(C)(C)C` [Compound A13], the “Control of weed species, ALOMY” value is on record as 0 in assay [1] and 1 in [7]. The “Control of weed species, AVEFA” value in [2] and in assay [8] was 0 throughout. In addition, the results for the “Control of weed species, ECHCG” value in assay [3] and in assay [9] were 1 and 2, respectively. The “Control of weed species, LOLPE” value in [4] and in [10] was 0 throughout. The “Control of weed species, ORYSA” value in [5] and in assay [11] was 1 each time. The “Control of weed species, TRZAW” value came out at 0 in assay [6] and 2 in assay [12].

Regarding `Cc1nc(-c2cccnc2)sc1N(C)C(=O)NOC(C)(C)C` [Compound A45, 3-tert-butoxy-1-methyl-1-(4-methyl-2-(3-pyridyl)thiazol-5-yl)urea], the “Control of weed species, ALOMY” value in assay [1] is reported as 2; in [7], 1. Also, the “Control of weed species, AVEFA” value in assay [2] is on record as 3; in [8] it was 5. In addition, the “Control of weed species, ECHCG” value in [3] was found to be 3; in assay [9] it was 4. For the same compound, the “Control of weed species, LOLPE” value in [4] was 2; in assay [10] it was 4. Also, the “Control of weed species, ORYSA” value in assay [5] and in assay [11] was 2 each time. The “Control of weed species, TRZAW” value worked out at 1 in assay [6] and 2 in [12].

`CN(C(=O)OC(C)(C)C)c1sc(-c2cncc(F)c2)nc1C(F)(F)F` [Compound A24]: the results for the “Control of weed species, ALOMY” value in assay [1] and in [7] were 2 and 0, respectively. Further, the “Control of weed species, AVEFA” value in [2] and in assay [8] was 4 throughout. Moreover, the “Control of weed species, ECHCG” value in [3] is given as 4; in assay [9], 5. For the same compound, the figures for the “Control of weed species, LOLPE” value in assay [4] and in [10] were 3 and 4, respectively. Also, the “Control of weed species, ORYSA” value in [5] amounted to 0; in assay [11], 2. Besides, the “Control of weed species, TRZAW” value in [6] and in assay [12] was 1 in each case.

For `CSc1cncc(-c2nc(C)c(N(C)C(=O)OC(C)(C)C)s2)c1` [Compound A12], the “Control of weed species, ALOMY” value in [1] and in [7] was 0 in each case. Also, the “Control of weed species, AVEFA” value worked out at 3 in assay [2] and 2 in assay [8]. The results for the “Control of weed species, ECHCG” value in assay [3] and in assay [9] were 3 and 4, respectively. Besides, the “Control of weed species, LOLPE” value amounted to 1 in assay [4] and 3 in assay [10]. The results for the “Control of weed species, ORYSA” value in [5] and in [11] were 0 and 1, respectively. Besides, the “Control of weed species, TRZAW” value amounted to 0 in assay [6] and 2 in [12].
